Results on two compounds are retold here after ChEMBL document CHEMBL2203247, “Ribonuclease-Activated Cancer Prodrug” (ACS Med Chem Lett, 2012).

pIC50: −log10 of the molar value.

For series [1], the system named is MCF7. Briefly: Antiproliferative activity against human MCF7 cells assessed as incorporation of [methyl-3H]thymidine into cellular DNA in serum free medium in absence of 6.2 ug/mL RNase 1. Type of series: functional, cell-based.
The subject of series [2] is MCF7. Briefly: Antiproliferative activity against human MCF7 cells assessed as incorporation of [methyl-3H]thymidine into cellular DNA in serum free medium in presence of 6.2 ug/mL RNase 1. Type of series: functional, cell-based.
Series [3] is described as follows: Prodrug stability assessed as compound degradation at 37 degC after 11 hrs in absence of ribonuclease 1 at pH 6.0 by HPLC analysis. Type of series: physicochemical. The conditions noted are these: buffer, pH 6, 11 h.
The target of series [4] is T1, Ribonuclease pancreatic (Homo sapiens, UniProt P07998).
T1 sequence (P07998 whole entry): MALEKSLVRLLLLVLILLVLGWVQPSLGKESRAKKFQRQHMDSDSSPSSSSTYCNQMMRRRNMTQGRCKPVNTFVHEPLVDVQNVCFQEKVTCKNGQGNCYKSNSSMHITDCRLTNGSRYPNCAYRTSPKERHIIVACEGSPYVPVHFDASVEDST
Briefly: Prodrug activation assessed as half life for ribonuclease 1 mediated 4-hydroxytamoxifen release in MES-NaOH buffer at pH 6.0 by HPLC analysis.

The nature of series [5]: Prodrug stability assessed as 4-hydroxytamoxifen release at 40 uM in serum free medium in absence of RNase 1. Type of series: ADME.
Series [6] in a line: Prodrug stability assessed as 4-hydroxytamoxifen release at 40 uM in pH 7.4 ribonuclease free 0.10 M sodium phosphate buffer containing NaCl and in absence of RNase 1. The note with it: pH 7.4, 40 µM. Type of series: physicochemical.

The term pIC50 denotes the IC50 on a negative log10 scale, so that one unit is a factor of ten. For the compound `CCC(=C(c1ccc(O)cc1)c1ccc(OCCN(C)C)cc1)c1ccccc1`, the pIC50 in series [1] and in series [2] was 5.57 each time.
`CC/C(=C(/c1ccc(OCCN(C)C)cc1)c1ccc(OP(=O)(O)O[C@H]2[C@@H](O)[C@H](n3ccc(=O)[nH]c3=O)O[C@@H]2CO)cc1)c1ccccc1`: the Drug degradation in series [3] was under 6%. Besides, the t1/2 in series [4] turned out to be 4 h; in series [5] it was 9 h; in series [6] it was 9.4 h. Moreover, the pIC50 in series [1] is 4.78; in series [2], 5.28.
